In assay [1] the test system is A549. The assay can be described thus: Anticancer activity against human A549 cells assessed as inhibition rate at 30 uM by SRB assay relative to control. In kind it is functional.
The test system of assay [2] is HeLa. The assay can be described thus: Anticancer activity against human Hela cells assessed as inhibition rate at 30 uM by SRB assay relative to control. The class given is functional. (In general: The SRB assay estimates cell density from bound dye.)
For assay [3], the system named is A549. The assay can be described thus: Anticancer activity against human A549 cells assessed as inhibition rate at 10 uM by SRB assay relative to control. In kind it is functional.
Assay [4] concerns HeLa. In words: Anticancer activity against human Hela cells assessed as inhibition rate at 10 uM by SRB assay relative to control. The class given is functional.
Assay [5] has as its system HeLa. The assay can be described thus: Anticancer activity against human HeLa cells assessed as inhibition of cell proliferation by SRB assay. In kind it is functional, cell-based.
In assay [6] the test system is A549. The assay can be described thus: Anticancer activity against human A549 cells assessed as inhibition of cell proliferation by SRB assay. The class given is functional, cell-based.

What is called inhibition is the change of the read-out against control, counted positive when it falls. As a reminder, the IC50 is the point on the concentration scale where inhibition reaches its midpoint.

Take `CCN(CC)c1ccc2cc(C(=O)c3ccc(OCCN4CCN(C(=O)CN5CCN(C(=O)c6cccc(C(F)(F)F)c6)CC5)CC4)cc3)oc2c1`: the values for the inhibition at 30 µM with A549 [1] and in the assay with HeLa [2] were 57.8% and 70.1%, respectively. The inhibition at 10 µM with A549 [3] was 49.3%; in the assay on HeLa [4] it was 27.4%.
Regarding `CCN(CC)c1ccc2cc(C(O)c3ccc(OCCN4CCN(C(=O)CN5CCN(C(=O)c6ccc(OC)cc6)CC5)CC4)cc3)oc2c1` (stereo not given), the inhibition at 30 µM with A549 [1] was 63.5%; in the assay on HeLa [2], 66.7%. Also, the inhibition at 10 µM in the assay with A549 [3] was found to be 55.2%; in the assay on HeLa [4], 42%.
For `CCc1ccc(C(=O)N2CCN(CC(=O)N3CCN(CCOc4ccc(C(=O)c5cc6ccc(N(CC)CC)cc6o5)cc4)CC3)CC2)cc1`, the inhibition at 30 µM in the assay with A549 [1] is 76.7%; with HeLa [2], 81.1%. The inhibition at 10 µM in the assay on A549 [3] is 24.7%; in the assay with HeLa [4] it was 42.7%. In addition, the figures for the IC50 in the assay with HeLa [5] and in the assay on A549 [6] were 14.5 µM and more than 30 µM, respectively.
`CCN(CC)c1ccc2cc(C(=O)c3ccc(OCCN4CCN(C(=O)CN5CCN(C(=O)c6ccc(C)cc6)CC5)CC4)cc3)oc2c1`: the inhibition at 30 µM in the assay with A549 [1] was determined as 62.4%; with HeLa [2], 90.1%. In addition, the inhibition at 10 µM came to 54.3% in the assay with A549 [3] and 61.4% in the assay on HeLa [4]. The IC50 in the assay on HeLa [5] was 7.09 µM; with A549 [6] it was 9.17 µM.
On to `CCN(CC)c1ccc2cc(C(O)c3ccc(OCCN4CCN(C(=O)CN5CCN(C(=O)c6ccccc6C(F)(F)F)CC5)CC4)cc3)oc2c1` (stereo not given), for which the inhibition at 30 µM in the assay with A549 [1] was determined as 57.8%; in the assay on HeLa [2], 49.8%. Further, the values for the inhibition at 10 µM with A549 [3] and with HeLa [4] were 43.6% and 30.6%, respectively.
Turning to `CCN(CC)c1ccc2cc(C(O)c3ccc(OCCN4CCN(C(=O)CN5CCN(C(=O)c6ccc7ccccc7c6)CC5)CC4)cc3)oc2c1` (stereo not given), the results for the inhibition at 30 µM with A549 [1] and in the assay on HeLa [2] were 89.2% and 24%, respectively. For the same compound, the inhibition at 10 µM in the assay with A549 [3] worked out at 77.9%; with HeLa [4] it was 12.1%. The figures for the IC50 with HeLa [5] and with A549 [6] were more than 30 µM and 3.05 µM, respectively.
Regarding `CCN(CC)c1ccc2cc(C(O)c3ccc(OCCN4CCN(C(=O)CN5CCN(C(=O)c6ccc(Br)cc6C(F)(F)F)CC5)CC4)cc3)oc2c1` (stereo not given), the inhibition at 30 µM is 72.3% in the assay on A549 [1] and 9.7% in the assay with HeLa [2]. The inhibition at 10 µM is 69.7% in the assay with A549 [3] and -1.6% in the assay on HeLa [4].
In the case of `C=C(C)C(=O)N1CCN(CC(=O)N2CCN(CCOc3ccc(C(=O)c4cc5ccc(N(CC)CC)cc5o4)cc3)CC2)CC1`, the results for the inhibition at 30 µM with A549 [1] and in the assay with HeLa [2] were 69.8% and 3.2%, respectively. Also, the inhibition at 10 µM in the assay with A549 [3] is 36.1%; with HeLa [4], -2.1%.
Regarding `CCN(CC)c1ccc2cc(C(O)c3ccc(OCCN4CCN(C(=O)CN5CCN(C(=O)c6ccc(C)cc6)CC5)CC4)cc3)oc2c1` (stereo not given), the inhibition at 30 µM with A549 [1] was 97.2%; in the assay with HeLa [2] it was 35.9%. The inhibition at 10 µM was found to be 77.9% in the assay with A549 [3] and 15.9% with HeLa [4]. For the same compound, the figures for the concentration for half-maximal inhibition (IC50) with HeLa [5] and with A549 [6] were more than 30 µM and 1.54 µM, respectively.
Take `C=CC(=O)N1CCN(CC(=O)N2CCN(CCOc3ccc(C(=O)c4cc5ccc(N(CC)CC)cc5o4)cc3)CC2)CC1`: the inhibition at 30 µM was 9.3% in the assay with A549 [1] and 32.1% in the assay on HeLa [2]. For the same compound, the figures for the inhibition at 10 µM with A549 [3] and in the assay on HeLa [4] were 2.3% and 18.6%, respectively.
Taken in the same sequence, the figures for `CCN(CC)c1ccc2cc(C(=O)c3ccc(OCCN4CCN(C(=O)CN5CCN(C(=O)c6ccc(Br)cc6C(F)(F)F)CC5)CC4)cc3)oc2c1` were 53.8%, 62.2%, 41.4% and 33.2%.
In the case of `CCc1ccc(C(=O)N2CCN(CC(=O)N3CCN(CCOc4ccc(C(O)c5cc6ccc(N(CC)CC)cc6o5)cc4)CC3)CC2)cc1` (stereo not given), the figures for the inhibition at 30 µM in the assay on A549 [1] and in the assay with HeLa [2] were 73.2% and 75.2%, respectively. The inhibition at 10 µM with A549 [3] is 47.9%; in the assay on HeLa [4], 36.1%.
As to `CCN(CC)c1ccc2cc(C(=O)c3ccc(OCCN4CCN(C(=O)CN5CCN(C(=O)c6ccccc6C(F)(F)F)CC5)CC4)cc3)oc2c1`, the values for the inhibition at 30 µM in the assay on A549 [1] and with HeLa [2] were 34.5% and 44.1%, respectively. Besides, the inhibition at 10 µM in the assay with A549 [3] was 27.3%; in the assay with HeLa [4], 25.5%.
Regarding `CCN(CC)c1ccc2cc(C(=O)c3ccc(OCCN4CCN(C(=O)CN5CCN(C(=O)c6ccc7ccccc7c6)CC5)CC4)cc3)oc2c1`, the inhibition at 30 µM turned out to be 78.8% in the assay on A549 [1] and 85.3% with HeLa [2]. In addition, the inhibition at 10 µM is 30.9% with A549 [3] and 48.7% with HeLa [4]. Besides, the IC50 in the assay on HeLa [5] came out at 11.2 µM; in the assay with A549 [6], 21.4 µM.
As for `CCN(CC)c1ccc2cc(C(O)c3ccc(OCCN4CCN(C(=O)CN5CCN(C(=O)c6ccccc6F)CC5)CC4)cc3)oc2c1` (stereo not given), the inhibition at 30 µM in the assay with A549 [1] was 75.6%; in the assay with HeLa [2], 92%. The inhibition at 10 µM in the assay on A549 [3] was 55.3%; in the assay with HeLa [4], 79%. Further, the IC50 in the assay with HeLa [5] was found to be 4.72 µM; in the assay on A549 [6] it was 8.63 µM.
`CCN(CC)c1ccc2cc(C(=O)c3ccc(OCCN4CCN(C(=O)CN5CCN(C(=O)c6cc(Cl)cc(Cl)c6)CC5)CC4)cc3)oc2c1`: the figures for the inhibition at 30 µM with A549 [1] and in the assay on HeLa [2] were 49.3% and 41.7%, respectively. Moreover, the inhibition at 10 µM was determined as 39.8% in the assay on A549 [3] and 20.1% in the assay with HeLa [4].
In the same order, the values of `CCN(CC)c1ccc2cc(C(=O)c3ccc(OCCN4CCN(C(=O)CN5CCN(C(=O)c6ccc(F)cc6)CC5)CC4)cc3)oc2c1` are 45.3%, 57%, 29% and 26%.
Taken in the same sequence, the figures for `CCN(CC)c1ccc2cc(C(=O)c3ccc(OCCN4CCN(C(=O)CN5CCN(C(=O)c6ccccc6F)CC5)CC4)cc3)oc2c1` were 76.9%, 56.9%, 66.4% and 31.4%.
In the case of `CCN(CC)c1ccc2cc(C(=O)c3ccc(OCCN4CCN(C(=O)CN5CCN(C(=O)c6ccc(Cl)cc6)CC5)CC4)cc3)oc2c1`, the values for the inhibition at 30 µM with A549 [1] and with HeLa [2] were 78.1% and 89%, respectively. In addition, the inhibition at 10 µM with A549 [3] turned out to be 22.9%; with HeLa [4], 47.5%. Also, the figures for the IC50 with HeLa [5] and in the assay on A549 [6] were 14.8 µM and 24.9 µM, respectively.
As to `C=C(C)C(=O)N1CCN(CC(=O)N2CCN(CCOc3ccc(C(O)c4cc5ccc(N(CC)CC)cc5o4)cc3)CC2)CC1` (stereo not given), the inhibition at 30 µM is 55.5% in the assay on A549 [1] and 30.5% in the assay on HeLa [2]. In addition, the results for the inhibition at 10 µM in the assay on A549 [3] and in the assay on HeLa [4] were 22.2% and 5.4%, respectively.
Taken in the same sequence, the figures for `CCN(CC)c1ccc2cc(C(O)c3ccc(OCCN4CCN(C(=O)CN5CCN(C(=O)c6ccc([N+](=O)[O-])cc6)CC5)CC4)cc3)oc2c1` (stereo not given) were 33%, 28.3%, 19.2% and 17.2%.
For the compound `CCN(CC)c1ccc2cc(C(O)c3ccc(OCCN4CCN(C(=O)CN5CCN(C(=O)c6cccc(C(F)(F)F)c6)CC5)CC4)cc3)oc2c1` (stereo not given), the values for the inhibition at 30 µM with A549 [1] and in the assay on HeLa [2] were 81.2% and 69.5%, respectively. The inhibition at 10 µM in the assay on A549 [3] was found to be 65.1%; with HeLa [4], 43.9%. In addition, the IC50 was 28.3 µM in the assay on HeLa [5] and 8.96 µM in the assay with A549 [6].
For `CCN(CC)c1ccc2cc(C(=O)c3ccc(OCCN4CCN(C(=O)CN5CCN(C(=O)c6ccc(OC)cc6)CC5)CC4)cc3)oc2c1`, the results for the inhibition at 30 µM in the assay with A549 [1] and in the assay on HeLa [2] were 85.8% and 64.1%, respectively. In addition, the values for the inhibition at 10 µM in the assay on A549 [3] and in the assay with HeLa [4] were 65.3% and 27.5%, respectively. Besides, the values for the half-maximal inhibitory concentration (IC50) in the assay on HeLa [5] and in the assay with A549 [6] were 27.2 µM and 8.06 µM, respectively.
On to `C=CC(=O)N1CCN(CC(=O)N2CCN(CCOc3ccc(C(O)c4cc5ccc(N(CC)CC)cc5o4)cc3)CC2)CC1` (stereo not given), for which the inhibition at 30 µM is 64% with A549 [1] and 90.7% in the assay with HeLa [2]. Also, the inhibition at 10 µM with A549 [3] was 51.9%; in the assay on HeLa [4] it was 53.8%. The IC50 with HeLa [5] was determined as 6.85 µM; with A549 [6], 9.18 µM.
Regarding `CCN(CC)c1ccc2cc(C(=O)c3ccc(OCCN4CCN(C(=O)CN5CCN(C(=O)c6ccc(C(F)(F)F)cc6)CC5)CC4)cc3)oc2c1`, the inhibition at 30 µM was found to be 77.9% in the assay with A549 [1] and 94.9% in the assay on HeLa [2]. The inhibition at 10 µM was found to be 54.8% in the assay with A549 [3] and 50.7% with HeLa [4]. For the same compound, the values for the IC50 with HeLa [5] and in the assay on A549 [6] were 8.64 µM and 7.02 µM, respectively.
For `CCN(CC)c1ccc2cc(C(=O)c3ccc(OCCN4CCN(C(=O)CN5CCN(C(=O)c6cc(F)c(F)c(F)c6F)CC5)CC4)cc3)oc2c1`, the inhibition at 30 µM worked out at 61.1% with A549 [1] and 86.6% with HeLa [2]. Besides, the inhibition at 10 µM in the assay on A549 [3] is 20%; in the assay on HeLa [4] it was 28%.
In the same order, the values of `CCN(CC)c1ccc2cc(C(=O)c3ccc(OCCN4CCN(C(=O)CN5CCN(C(=O)c6ccc([N+](=O)[O-])cc6)CC5)CC4)cc3)oc2c1` are 22.9%, 24%, 16.5% and 17.2%.

The record behind these values is ChEMBL document CHEMBL5321258, “Anticancer evaluation of benzofuran derivatives linked to dipiperazine moiety” (Bioorg Med Chem Lett, 2023).
